Measured values: patent publication US6767991B1, “Hepatitis C inhibitor peptides” (priority 1997, dated 2004)
Like-named read-outs stand apart in the source and are kept apart here. Where a SMILES comes first, the peptide text is derived from it. [ ]: non-standard residue; d: D form. The star is where a group is joined. Acca(2-Et,1R,2R) = CC[C@@H]1C[C@]1(N)C(=O)O; CH2(1-naphthyl) = c1ccc2c(C*)cccc2c1; Hyp = O=C(O)[C@@H]1C[C@@H](O)CN1; Chg = N[C@H](C(=O)O)C1CCCCC1; Nva = CCC[C@H](N)C(=O)O; X1 = c1ccc2cc(C*)ccc2c1; Ac3c = NC1(C(=O)O)CC1; Bn = c1ccc(C*)cc1

Columns and labels:
[1] = molecular target: T1, HCV NS3 protease type 1b/NS4A cofactor peptide (Hepatitis C virus genotype 1b, UniProt P26663); test: Recombinant HCV NS3 protease/NS4A cofactor peptide radiometric assay; assay type: biochemical, HCV genotype 1b
T1 construct: recombinant HCV NS3 protease (amino acid 1027 to 1206) was cloned in the pET11d bacterial expression vector; made in house; host or cells: E. coli BL21(DE3)pLysS

human leukocyte elastase = molecular target: T2, human leukocyte elastase (Homo sapiens, UniProt P08246); test: Specificity assay: human leukocyte elastase; assay type: biochemical
T2 sequence (P08246 30-267): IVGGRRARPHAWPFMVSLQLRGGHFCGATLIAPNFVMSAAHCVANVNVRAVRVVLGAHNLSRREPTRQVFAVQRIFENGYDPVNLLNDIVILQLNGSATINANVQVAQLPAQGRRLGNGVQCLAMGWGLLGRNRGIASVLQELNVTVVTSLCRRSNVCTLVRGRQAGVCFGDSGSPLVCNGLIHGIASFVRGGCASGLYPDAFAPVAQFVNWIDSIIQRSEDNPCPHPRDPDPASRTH
Procedure: (§1) The final conditions for each assay were as follows:
[100 μM Succ-AAPF-pNA [SEQ. ID NO.
(§2) The percentage of inhibition was calculated using the formula:
(§3) [1-((UVinn-UVblank)/(UVctl-UVblank))]×100

[2] = molecular target: porcine pancreatic elastase (Sus scrofa, UniProt P00772); test: biochemical
Procedure: (§4) The specificity of the compounds was determined against a variety of serine proteases: human leukocyte elastase, porcine pancreatic elastase and bovine pancreatic α-chymotrypsin and one cysteine protease: human liver cathepsin B. In all cases a 96-well plate format protocol using a colorimetric p-nitroaniline (pNA) substrate specific for each enzyme was used. Each assay included a 1 h enzyme-inhibitor pre-incubation at 30° C. followed by addition of substrate and hydrolysis to ≈30% conversion as measured on a UV Thermomax® microplate reader. Substrate concentrations were kept as low as possible compared to KM to reduce substrate competition. Compound concentrations varied from 300 to 0.06 μM depending on their potency. The final conditions for each assay were as follows:
(§5) 50 mM Tris-HCl pH 8, 0.5 M Na2SO4, 50 mM NaCl, 0.1 mM EDTA, 3% DMSO, 0.01% Tween-20 with;
[100 μM Succ-AAPF-pNA [SEQ. […] 7] and 250 pM α-chymotrypsin], [133 μM Succ-AAA-pNA and 8 nM porcine elastase], [133 μM Succ-AAV-pNA and 8 nM leukocyte elastase]; or
A representative example is summarized below for porcine pancreatic elastase: In a polystyrene flat-bottom 96-well plate were added using a Biomek liquid handler (Beckman):
40 μL of assay buffer (50 mM Tris-HCl pH 8, 50 mM NaCl, 0.1 mM EDTA);
20 μL of enzyme solution (50 mM Tris-HCl pH 8, 50 mM NaCl, 0.1 mM EDTA, 0.02% Tween-20, 40 nM porcine pancreatic elastase); and
20 μL of inhibitor solution (50 mM Tris-HCl, pH 8, 50 mM NaCl, 0.1 mM EDTA, 0.02% Tween-20, 1.5 mM-0.3 μM inhibitor, 15% v/v DMSO).
After 60 min pre-incubation at 30° C., 20 μL of substrate solution (50 mM Tris/HCl, pH 8, 0.5 M Na2SO4, 50 mM NaCl, 0.1 mM EDTA, 665 μM Succ-AAA-pNA) were added to each well and the reaction was further incubated at 30° C. for 60 min after which time the absorbance was read on the UV Thermomax® plate reader. Rows of wells were allocated for controls (no inhibitor) and for blanks (no inhibitor and no enzyme). The sequential 2-fold dilutions of the inhibitor solution were performed on a separate plate by the liquid handler using 50 mM Tris-HCl pH 8, 50 mM NaCl, 0.1 mM EDTA, 0.02% Tween-20, 15% DMSO. All other specificity assays were performed in a similar fashion.
A non-linear curve fit with the Hill model was applied to the inhibition-concentration data, and the 50% effective concentration (IC50) was calculated by the use of SAS software (Statistical Software System; SAS Institute, Inc., Cary, N.C.).

human liver cathepsin B = molecular target: T3, human liver cathepsin B (Homo sapiens, UniProt P07858); test: Specificity assay: human liver cathepsin B; assay type: biochemical
T3 construct: from tissue; host or cells: human liver
Procedure: as §1
[100 mM NaHPO4 pH 6, 0.1 mM EDTA, 3% DMSO, 1 mM TCEP, 0.01% Tween-20, 30 μM Z-FR-pNA and 5 nM cathepsin B (tile stock enzyme was activated in buffer containing 20 mM TCEP before use)].
as §2, §3

[3] = molecular target: bovine pancreatic α-chymotrypsin (Bos taurus, UniProt P00766); test: biochemical
Procedure: as §4, §5
After 60 min pre-incubation at 30° C., 20 μL of substrate solution (50 mM Tris/HCl, pH 8, 0.5 M Na2SO4, 50 mM NaCl, 0.1 mM EDTA, 665 μM Succ-AAA-pNA) were added to each well and the reaction was further incubated at 30° C. for 60 min after which time the absorbance was read on the UV Thermomax® plate reader. Rows of wells were allocated for controls (no inhibitor) and for blanks (no inhibitor and no enzyme). […]
The percentage of inhibition was calculated using the formula: […]

NS3 protease = NS3 protease (Hepatitis C virus genotype 1b, UniProt P26663); test: Inhibition of NS3 protease by N-terminal cleavage product (assay not specified); assay type: biochemical, HCV; conditions: N-terminal cleavage product of an analog of a natural substrate
[4] = IC50, Table 2, unmarked values: NS3 protease/NS4A cofactor peptide radiometric assay
[5] = Table 2, human leukocyte elastase, read-out: HLE
[6] = Table 5, first line of the cell, NS3 protease/NS4A cofactor peptide radiometric assay (Example 38), read-out: IC50

porcine pancreatic elastase, sequence (P00772 27-266): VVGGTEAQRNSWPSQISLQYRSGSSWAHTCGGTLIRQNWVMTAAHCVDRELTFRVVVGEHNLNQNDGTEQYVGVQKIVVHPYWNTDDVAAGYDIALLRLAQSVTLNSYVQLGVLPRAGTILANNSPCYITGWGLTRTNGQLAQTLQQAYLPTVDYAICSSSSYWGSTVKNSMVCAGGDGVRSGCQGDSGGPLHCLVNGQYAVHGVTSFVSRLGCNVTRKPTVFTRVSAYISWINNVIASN
T1 sequence (P26663 1027-1206, other chains not shown): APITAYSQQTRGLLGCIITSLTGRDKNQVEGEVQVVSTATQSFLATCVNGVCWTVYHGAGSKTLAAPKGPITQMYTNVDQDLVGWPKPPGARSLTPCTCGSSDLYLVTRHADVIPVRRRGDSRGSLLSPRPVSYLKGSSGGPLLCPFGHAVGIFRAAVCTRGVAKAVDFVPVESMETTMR
NS3 protease, sequence (P26663 1027-1208): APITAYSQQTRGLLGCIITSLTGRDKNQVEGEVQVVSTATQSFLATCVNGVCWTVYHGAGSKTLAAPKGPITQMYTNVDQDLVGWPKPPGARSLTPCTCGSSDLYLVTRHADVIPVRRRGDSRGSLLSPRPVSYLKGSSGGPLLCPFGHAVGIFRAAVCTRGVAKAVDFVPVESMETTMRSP

Row | Molecule | IC50 [1, 4] [µM] | IC50 (human leukocyte elastase; [5]) [µM] | IC50 [2] [µM] | IC50 (human leukocyte elastase) [µM] | further results
1 | CC[C@H](C)[C@H](NC(=O)[C@@H](CCC(=O)O)NC(=O)[C@H](CC(=O)O)NC(C)=O)C(=O)N[C@H](C(=O)N1C[C@H](OCc2ccccc2)C[C@H]1C(=O)NC1(C(=O)O)CC1)C(C)C [compound 212] (Ac-D[dE]IV[Hyp](Bn)[Ac3c]-OH; C-terminus assumed) | 0.21 | > 300 | > 300 |  | 
2 | CCC[C@H](NC(=O)[C@@H]1C[C@@H](OCc2ccc3ccccc3c2)CN1C(=O)[C@@H](NC(=O)[C@@H](NC(=O)[C@@H](CCC(=O)O)NC(=O)[C@H](CC(=O)O)NC(C)=O)C1CCCCC1)C(C)C)C(=O)O [compound 214] (Ac-D[dE][Chg]V[Hyp](X1)[Nva]-OH) |  |  | > 300 | > 300 | IC50 ([1]; Table 2, unmarked values: NS3 protease/NS4A cofactor peptide radiometric assay, read-out: IC50): 0.028 µM; IC50 (human liver cathepsin B): > 300 µM; IC50 [3]: > 300 µM
3 | CCC[C@H](NC(=O)[C@@H]1C[C@@H](OCc2ccccc2)CN1C(=O)[C@@H](NC(=O)[C@@H](NC(=O)[C@@H](CCC(=O)O)NC(=O)[C@H](CC(=O)O)NC(C)=O)[C@@H](C)CC)C(C)C)C(=O)O [compound 203] (Ac-D[dE]IV[Hyp](Bn)[Nva]-OH; C-terminus assumed) | 0.6 | > 300 | > 300 |  | IC50 (human liver cathepsin B; Table 2, marked **: human liver cathepsin B, read-out: Other (marked **)): > 300 µM
4 | Ac-DDIVPC-OH [Ac-D-D-I-V-P-C-OH] |  |  |  |  | inhibition of NS3 protease (NS3 protease): inhibitory
5 | CC(=O)N[C@@H](CC(=O)O)C(=O)N[C@H](CCC(=O)O)C(=O)N[C@H](C(=O)N[C@H](C(=O)N1C[C@H](OCc2ccccc2)C[C@H]1C(=O)N[C@@H](CS)C(=O)O)C(C)C)C1CCCCC1 [compound 210] (Ac-D[dE][Chg]V[Hyp](Bn)C-OH) | 0.033 | > 300 | > 300 |  | IC50 [3]: > 300 µM
6 | CC[C@@H]1C[C@]1(NC(=O)[C@@H]1C[C@@H](OCc2cccc3ccccc23)CN1C(=O)[C@@H](NC(=O)[C@@H](NC(=O)[C@@H](CCC(=O)O)NC(=O)[C@H](CC(=O)O)NC(C)=O)C1CCCCC1)C1CCCCC1)C(=O)O [compound 509] (Ac-D[dE][Chg][Chg][Hyp](CH2(1-naphthyl))[Acca(2-Et,1R,2R)]-OH) |  |  |  | > 300 | IC50 [1, 6]: 0.015 µM
7 | CC[C@@H]1C[C@]1(NC(=O)[C@@H]1C[C@@H](OCc2cccc3ccccc23)CN1C(=O)[C@@H](NC(=O)[C@@H](NC(=O)[C@H](NC(=O)[C@H](CC(=O)O)NC(C)=O)C(C)C)C1CCCCC1)C(C)C)C(=O)O [compound 521] (Ac-D[dV][Chg]V[Hyp](CH2(1-naphthyl))[Acca(2-Et,1R,2R)]-OH) |  |  |  | > 300 | IC50 [1, 6]: 0.024 µM
8 | CCC[C@H](NC(=O)[C@@H]1CCCN1C(=O)[C@@H](NC(=O)[C@@H](NC(=O)[C@H](CC(=O)O)NC(=O)[C@H](CC(=O)O)NC(C)=O)[C@@H](C)CC)C(C)C)C(=O)O [compound 123] |  |  | > 300 | > 300 | IC50 ([1]; Table 1, unmarked values: NS3 protease/NS4A cofactor peptide radiometric assay, read-out: IC50): 220 µM
